Each structure is given as a SMILES string.

We go through eleven compounds from US20260356819A1, “OXOISOINDOLINYL-SUBSTITUTED […] DERIVATIVE AND USE THEREOF” (GLUETACS THERAPEUTICS (SHANGHAI) CO., LTD., priority 2023, published 2026).

Common to all, as to format: cell-based
Common to all, as to conditions: compounds at 50 nM and 500 nM

In one test the target is T1, IKZF2 (Homo sapiens, UniProt Q96SW2+Q9UKS7).
T1 construct: The supernatant was aspirated as the extracted total cell protein; endogenous in cells; host or cells: human peripheral blood mononuclear cells (hPBMCs)
The test can be described thus: Western blot degradation of IKZF2 in hPBMCs (24 h). In a few lines: (§1)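 Immunoblot densitometry quantifies target loss in hPBMCs after a 24 h compound exposure (50 nM, 500 nM). Percent remaining is normalised band intensity; DC50 is the concentration giving half the DMSO-control band grayscale.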
For orientation: In western blotting, separated proteins are transferred to a membrane and probed.

The next test has as its target T2, IKZF1 (Homo sapiens, UniProt Q13422+Q96SW2).
T2 construct: The supernatant was aspirated as the extracted total cell protein; endogenous in cells; host or cells: human peripheral blood mononuclear cells (hPBMCs)
The experiment in a line: Western blot degradation of IKZF1 in hPBMCs (24 h). In a few lines: as §1

Another test concerns the target T3, IKZF3 (Homo sapiens, UniProt Q96SW2+Q9UKT9).
T3 construct: The supernatant was aspirated as the extracted total cell protein; endogenous in cells; host or cells: human peripheral blood mononuclear cells (hPBMCs)
The experiment in a line: Western blot degradation of IKZF3 in hPBMCs (24 h). The essentials:
as §1

Another test has as its target T4, WEE1 (Homo sapiens, UniProt P30291+Q96SW2).
T4 construct: The supernatant was aspirated as the extracted total cell protein; endogenous in cells; host or cells: human peripheral blood mononuclear cells (hPBMCs)
The experiment in a line: Western blot degradation of WEE1 in hPBMCs (24 h). In a few lines:
as §1

In the next test the target is T5, CK1α (Homo sapiens, UniProt P48729+Q96SW2).
T5 construct: The supernatant was aspirated as the extracted total cell protein; endogenous in cells; host or cells: human peripheral blood mononuclear cells (hPBMCs)
T5 sequence (P48729 whole entry): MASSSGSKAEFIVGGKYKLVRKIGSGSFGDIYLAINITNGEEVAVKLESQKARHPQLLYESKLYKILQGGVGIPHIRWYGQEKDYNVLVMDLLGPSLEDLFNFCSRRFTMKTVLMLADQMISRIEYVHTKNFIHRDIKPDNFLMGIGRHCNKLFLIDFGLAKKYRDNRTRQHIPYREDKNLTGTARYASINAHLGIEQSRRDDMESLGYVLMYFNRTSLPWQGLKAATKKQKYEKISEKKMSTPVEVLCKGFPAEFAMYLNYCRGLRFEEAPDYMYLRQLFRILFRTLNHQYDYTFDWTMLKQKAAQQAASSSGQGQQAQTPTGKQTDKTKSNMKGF
T5 sequence (Q96SW2 whole entry): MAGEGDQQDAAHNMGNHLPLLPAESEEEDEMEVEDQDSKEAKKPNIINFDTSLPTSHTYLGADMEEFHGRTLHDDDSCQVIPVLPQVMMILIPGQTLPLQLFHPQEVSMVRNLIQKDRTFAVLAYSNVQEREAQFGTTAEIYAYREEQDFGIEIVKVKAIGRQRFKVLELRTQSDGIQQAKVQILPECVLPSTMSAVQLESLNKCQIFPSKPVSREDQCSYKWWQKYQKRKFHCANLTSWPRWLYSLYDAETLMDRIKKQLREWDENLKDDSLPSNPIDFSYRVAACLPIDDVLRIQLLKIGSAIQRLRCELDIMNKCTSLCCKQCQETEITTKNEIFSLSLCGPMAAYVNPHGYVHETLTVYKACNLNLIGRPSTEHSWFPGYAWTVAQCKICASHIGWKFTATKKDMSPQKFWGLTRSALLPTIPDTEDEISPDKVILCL
T5 sequence (Q16531 whole entry partner): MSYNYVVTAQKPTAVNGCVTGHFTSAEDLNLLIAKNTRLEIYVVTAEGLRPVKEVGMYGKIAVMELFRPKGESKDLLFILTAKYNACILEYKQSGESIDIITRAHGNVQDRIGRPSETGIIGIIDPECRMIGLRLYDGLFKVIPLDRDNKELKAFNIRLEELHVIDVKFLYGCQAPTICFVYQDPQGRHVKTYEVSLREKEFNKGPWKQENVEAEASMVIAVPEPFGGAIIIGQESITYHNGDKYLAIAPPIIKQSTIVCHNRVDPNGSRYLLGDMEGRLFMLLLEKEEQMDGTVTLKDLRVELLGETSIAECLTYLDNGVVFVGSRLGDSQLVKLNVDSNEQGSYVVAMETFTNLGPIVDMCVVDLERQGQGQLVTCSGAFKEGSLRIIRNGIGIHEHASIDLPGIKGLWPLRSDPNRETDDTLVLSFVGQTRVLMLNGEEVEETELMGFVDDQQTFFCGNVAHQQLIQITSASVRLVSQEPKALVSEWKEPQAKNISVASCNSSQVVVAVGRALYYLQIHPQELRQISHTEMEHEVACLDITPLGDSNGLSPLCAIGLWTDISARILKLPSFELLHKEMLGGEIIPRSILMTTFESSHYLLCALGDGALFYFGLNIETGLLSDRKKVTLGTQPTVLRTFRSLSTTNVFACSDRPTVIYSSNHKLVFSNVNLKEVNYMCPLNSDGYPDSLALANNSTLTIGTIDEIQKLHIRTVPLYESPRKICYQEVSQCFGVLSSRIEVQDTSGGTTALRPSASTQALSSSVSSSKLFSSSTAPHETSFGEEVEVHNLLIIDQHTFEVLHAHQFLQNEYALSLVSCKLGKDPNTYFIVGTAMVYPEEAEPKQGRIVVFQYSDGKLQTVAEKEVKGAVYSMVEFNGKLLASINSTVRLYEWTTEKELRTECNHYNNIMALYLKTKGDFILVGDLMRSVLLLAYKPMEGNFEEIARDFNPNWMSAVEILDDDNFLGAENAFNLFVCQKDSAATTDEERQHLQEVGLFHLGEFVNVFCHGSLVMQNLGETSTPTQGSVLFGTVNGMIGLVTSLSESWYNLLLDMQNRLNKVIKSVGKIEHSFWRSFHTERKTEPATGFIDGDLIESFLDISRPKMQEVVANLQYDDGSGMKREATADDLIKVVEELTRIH
The experiment in a line: Western blot degradation of CK1α in hPBMCs (24 h). The essentials: as §1

A further test has as its target T6, GSPT1 (Homo sapiens, UniProt P15170+Q96SW2).
T6 construct: The supernatant was aspirated as the extracted total cell protein; endogenous in cells; host or cells: human peripheral blood mononuclear cells (hPBMCs)
The experiment in a line: Western blot degradation of GSPT1 in hPBMCs (24 h). In a few lines:
as §1

T6 sequence (P15170 whole entry): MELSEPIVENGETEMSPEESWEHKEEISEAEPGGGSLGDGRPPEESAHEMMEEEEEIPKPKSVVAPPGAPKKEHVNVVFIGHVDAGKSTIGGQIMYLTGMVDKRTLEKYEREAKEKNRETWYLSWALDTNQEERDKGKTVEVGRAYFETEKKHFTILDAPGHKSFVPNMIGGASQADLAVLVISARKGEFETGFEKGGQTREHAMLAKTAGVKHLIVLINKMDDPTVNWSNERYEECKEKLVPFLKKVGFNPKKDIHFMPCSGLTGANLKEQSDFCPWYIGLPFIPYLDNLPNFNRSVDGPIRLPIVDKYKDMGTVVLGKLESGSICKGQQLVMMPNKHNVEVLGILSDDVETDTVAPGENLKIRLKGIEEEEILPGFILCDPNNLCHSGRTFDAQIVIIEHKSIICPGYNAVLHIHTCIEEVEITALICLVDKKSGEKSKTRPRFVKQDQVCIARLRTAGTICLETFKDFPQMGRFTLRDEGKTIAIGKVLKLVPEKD
T6 sequence (Q96SW2 whole entry): as the sequence (Q96SW2 whole entry) above
T6 sequence (Q16531 whole entry partner): as the sequence (Q16531 whole entry partner) above
T3 sequence (Q9UKT9 whole entry): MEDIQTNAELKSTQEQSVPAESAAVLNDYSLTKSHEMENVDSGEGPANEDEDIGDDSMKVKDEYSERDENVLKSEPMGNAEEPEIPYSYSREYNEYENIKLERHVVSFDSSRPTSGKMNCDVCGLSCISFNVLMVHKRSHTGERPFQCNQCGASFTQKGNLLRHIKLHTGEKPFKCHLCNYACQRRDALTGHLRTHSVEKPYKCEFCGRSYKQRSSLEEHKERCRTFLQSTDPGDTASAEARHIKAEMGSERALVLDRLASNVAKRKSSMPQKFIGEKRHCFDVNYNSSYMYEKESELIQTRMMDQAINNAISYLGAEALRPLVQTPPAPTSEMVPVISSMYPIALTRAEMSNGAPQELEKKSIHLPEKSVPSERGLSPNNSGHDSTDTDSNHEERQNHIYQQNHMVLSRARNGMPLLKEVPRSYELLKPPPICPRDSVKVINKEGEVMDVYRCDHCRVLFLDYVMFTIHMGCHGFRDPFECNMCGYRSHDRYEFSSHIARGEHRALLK
T3 sequence (Q96SW2 whole entry): as the sequence (Q96SW2 whole entry) above
T3 sequence (Q16531 whole entry partner): as the sequence (Q16531 whole entry partner) above
T4 sequence (P30291 whole entry): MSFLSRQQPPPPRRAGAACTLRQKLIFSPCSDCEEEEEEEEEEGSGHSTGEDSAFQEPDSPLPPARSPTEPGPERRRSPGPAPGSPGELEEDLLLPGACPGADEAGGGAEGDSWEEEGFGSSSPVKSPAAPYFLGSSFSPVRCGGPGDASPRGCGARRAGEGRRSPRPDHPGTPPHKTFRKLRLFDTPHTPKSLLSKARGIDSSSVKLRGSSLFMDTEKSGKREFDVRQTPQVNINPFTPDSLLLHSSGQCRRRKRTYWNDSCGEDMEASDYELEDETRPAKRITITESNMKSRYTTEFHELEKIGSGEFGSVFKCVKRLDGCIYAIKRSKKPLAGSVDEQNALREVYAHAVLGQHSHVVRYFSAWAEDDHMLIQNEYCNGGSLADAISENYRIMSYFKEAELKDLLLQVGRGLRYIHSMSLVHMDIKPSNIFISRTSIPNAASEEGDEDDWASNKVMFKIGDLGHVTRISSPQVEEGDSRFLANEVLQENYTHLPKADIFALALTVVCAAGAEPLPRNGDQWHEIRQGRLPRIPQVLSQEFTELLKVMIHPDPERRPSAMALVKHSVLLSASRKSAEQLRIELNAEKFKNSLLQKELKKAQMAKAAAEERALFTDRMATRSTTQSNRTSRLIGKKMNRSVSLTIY
T4 sequence (Q96SW2 whole entry): as the sequence (Q96SW2 whole entry) above
T4 sequence (Q16531 whole entry partner): as the sequence (Q16531 whole entry partner) above
T2 sequence (Q13422 whole entry): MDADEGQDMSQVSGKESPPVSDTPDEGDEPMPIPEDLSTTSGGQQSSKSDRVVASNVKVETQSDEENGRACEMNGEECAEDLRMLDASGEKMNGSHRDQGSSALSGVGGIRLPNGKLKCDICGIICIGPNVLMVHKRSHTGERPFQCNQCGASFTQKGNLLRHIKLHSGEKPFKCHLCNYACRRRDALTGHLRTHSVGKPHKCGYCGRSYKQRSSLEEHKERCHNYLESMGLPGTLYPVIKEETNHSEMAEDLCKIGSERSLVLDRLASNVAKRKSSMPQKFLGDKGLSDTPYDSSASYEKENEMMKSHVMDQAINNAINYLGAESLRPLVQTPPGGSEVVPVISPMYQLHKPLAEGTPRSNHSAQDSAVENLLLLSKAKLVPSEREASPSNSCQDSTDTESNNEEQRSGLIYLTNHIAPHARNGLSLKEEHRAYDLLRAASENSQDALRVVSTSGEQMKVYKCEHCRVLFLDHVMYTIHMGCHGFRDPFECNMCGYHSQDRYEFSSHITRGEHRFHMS
T2 sequence (Q96SW2 whole entry): as the sequence (Q96SW2 whole entry) above
T2 sequence (Q16531 whole entry partner): as the sequence (Q16531 whole entry partner) above

With `O=C1CCN(N2C(=O)c3ccc(CN4CCC(n5c(=O)[nH]c6cc(F)ccc65)CC4)cc3C2=O)C(=O)N1` [GT-07583, 2-(2,4-dioxotetrahydropyrimidin-1(2H)-yl)-5-((4-(5-fluoro-2-oxo-2,3-dihydro-1H-benzo[d]imidazol-1-yl)piperidin-1-yl)methyl)isoindoline-1,3-dione], the “IKZF2 substrate protein remaining %” value on IKZF2 is listed as “B (80%< substrate protein remaining % ≤100%)”. The “IKZF1 substrate protein remaining %” value at IKZF1 is on record as “B (80%< substrate protein remaining % ≤100%)”. On IKZF3, the “IKZF3 substrate protein remaining %” value was “B (80%< substrate protein remaining % ≤100%)”. For the same compound, the “WEE1 substrate protein remaining %” value on WEE1 is reported as “A (0% ≤ substrate protein remaining % ≤80%)”. Also, on CK1α, the “CK1α substrate protein remaining %” value is listed as “B (80%< substrate protein remaining % ≤100%)”. Moreover, the “GSPT1 substrate protein remaining %” value at GSPT1 is recorded as “A (0% ≤ substrate protein remaining % ≤80%)”.

Take `O=C1CCN(N2Cc3cc(CN4CCC(N5CCCc6cc(F)ccc65)CC4)ccc3C2=O)C(=O)N1` [GT-07584, 1-(5-((4-(6-fluoro-3,4-dihydroquinolin-1(2H)-yl)piperidin-1-yl)methyl)-1-oxoisoindolin-2-yl)dihydropyrimidine-2,4(1H,3H)-dione]: at IKZF2, the “IKZF2 substrate protein remaining %” value is recorded as “B (80%< substrate protein remaining % ≤100%)”. For the same compound, the “IKZF1 substrate protein remaining %” value on IKZF1 is recorded as “A (0% ≤ substrate protein remaining % ≤80%)”. The “IKZF3 substrate protein remaining %” value at IKZF3 is “B (80%< substrate protein remaining % ≤100%)”. Besides, the “WEE1 substrate protein remaining %” value at WEE1 is recorded as “A (0% ≤ substrate protein remaining % ≤80%)”. Moreover, the “CK1α substrate protein remaining %” value on CK1α is “B (80%< substrate protein remaining % ≤100%)”. In addition, the “GSPT1 substrate protein remaining %” value on GSPT1 was “A (0% ≤ substrate protein remaining % ≤80%)”.

Consider `O=C1CCN(N2Cc3cc(CN4CCC(N5CCOc6cc(F)ccc65)CC4)ccc3C2=O)C(=O)N1` [GT-07585, 1-(5-((4-(7-fluoro-2,3-dihydro-4H-benzo[b][1,4]oxazin-4-yl)piperidin-1-yl)methyl)-1-oxoisoindolin-2-yl)dihydropyrimidine-2,4(1H,3H)-dione], for which the “IKZF2 substrate protein remaining %” value at IKZF2 is on record as “B (80%< substrate protein remaining % ≤100%)”. Besides, the “IKZF1 substrate protein remaining %” value at IKZF1 is “A (0% ≤ substrate protein remaining % ≤80%)”. Moreover, the “IKZF3 substrate protein remaining %” value on IKZF3 is “B (80%< substrate protein remaining % ≤100%)”. The “WEE1 substrate protein remaining %” value on WEE1 is on record as “A (0% ≤ substrate protein remaining % ≤80%)”. In addition, at CK1α, the “CK1α substrate protein remaining %” value is “B (80%< substrate protein remaining % ≤100%)”. For the same compound, the “GSPT1 substrate protein remaining %” value at GSPT1 is on record as “A (0% ≤ substrate protein remaining % ≤80%)”.

Take `O=C1CCN(N2Cc3cc(CN4CCC(N5C(=O)COc6cc(F)ccc65)CC4)ccc3C2=O)C(=O)N1` [GT-07586, 1-(5-((4-(7-fluoro-3-oxo-2,3-dihydro-4H-benzo[b][1,4]oxazin-4-yl)piperidin-1-yl)methyl)-1-oxoisoindolin-2-yl)dihydropyrimidine-2,4(1H,3H)-dione]: the “IKZF2 substrate protein remaining %” value at IKZF2 is listed as “B (80%< substrate protein remaining % ≤100%)”. Besides, the “IKZF1 substrate protein remaining %” value at IKZF1 was “A (0% ≤ substrate protein remaining % ≤80%)”. Besides, the “IKZF3 substrate protein remaining %” value on IKZF3 is “B (80%< substrate protein remaining % ≤100%)”. Moreover, on WEE1, the “WEE1 substrate protein remaining %” value is listed as “A (0% ≤ substrate protein remaining % ≤80%)”. Besides, the “CK1α substrate protein remaining %” value on CK1α is recorded as “B (80%< substrate protein remaining % ≤100%)”. Moreover, on GSPT1, the “GSPT1 substrate protein remaining %” value is recorded as “A (0% ≤ substrate protein remaining % ≤80%)”.

With `O=C1CCN(N2Cc3cc(CN4CCC(C5CCOc6cc(F)ccc65)CC4)ccc3C2=O)C(=O)N1` (stereo not drawn) [GT-07587, 1-(5-((4-(7-fluorochroman-4-yl)piperidin-1-yl)methyl)-1-oxoisoindolin-2-yl)dihydropyrimidine-2,4(1H,3H)-dione], on IKZF2, the “IKZF2 substrate protein remaining %” value is given as “B (80%< substrate protein remaining % ≤100%)”. Moreover, at IKZF1, the “IKZF1 substrate protein remaining %” value is on record as “A (0% ≤ substrate protein remaining % ≤80%)”. Moreover, the “IKZF3 substrate protein remaining %” value on IKZF3 was “B (80%< substrate protein remaining % ≤100%)”. The “WEE1 substrate protein remaining %” value at WEE1 was “A (0% ≤ substrate protein remaining % ≤80%)”. Besides, on CK1α, the “CK1α substrate protein remaining %” value is reported as “B (80%< substrate protein remaining % ≤100%)”. For the same compound, the “GSPT1 substrate protein remaining %” value on GSPT1 is “A (0% ≤ substrate protein remaining % ≤80%)”.

Turning to `O=C1CCN(N2Cc3cc(CN4CCC(=C5CCOc6cc(F)ccc65)CC4)ccc3C2=O)C(=O)N1` [GT-07588, 1-(5-((4-(7-fluorochroman-4-ylidene)piperidin-1-yl)methyl)-1-oxoisoindolin-2-yl)dihydropyrimidine-2,4(1H,3H)-dione], at IKZF2, the “IKZF2 substrate protein remaining %” value is “B (80%< substrate protein remaining % ≤100%)”. At IKZF1, the “IKZF1 substrate protein remaining %” value was “B (80%< substrate protein remaining % ≤100%)”. In addition, the “IKZF3 substrate protein remaining %” value at IKZF3 was “B (80%< substrate protein remaining % ≤100%)”. Further, on WEE1, the “WEE1 substrate protein remaining %” value is “B (80%< substrate protein remaining % ≤100%)”. In addition, the “CK1α substrate protein remaining %” value on CK1α is on record as “B (80%< substrate protein remaining % ≤100%)”. Also, the “GSPT1 substrate protein remaining %” value at GSPT1 is “A (0% ≤ substrate protein remaining % ≤80%)”.

With `O=C1CCN(N2Cc3cc(CN4CCC(c5cccc6c(F)cccc56)CC4)ccc3C2=O)C(=O)N1` [GT-07589, 1-(5-((4-(5-fluoronaphthalen-1-yl)piperidin-1-yl)methyl)-1-oxoisoindolin-2-yl)dihydropyrimidine-2,4(1H,3H)-dione], the “IKZF2 substrate protein remaining %” value on IKZF2 was “B (80%< substrate protein remaining % ≤100%)”. On IKZF1, the “IKZF1 substrate protein remaining %” value is listed as “B (80%< substrate protein remaining % ≤100%)”. The “IKZF3 substrate protein remaining %” value at IKZF3 is on record as “B (80%< substrate protein remaining % ≤100%)”. Besides, the “WEE1 substrate protein remaining %” value at WEE1 is “B (80%< substrate protein remaining % ≤100%)”. On CK1α, the “CK1α substrate protein remaining %” value is reported as “B (80%< substrate protein remaining % ≤100%)”. Moreover, at GSPT1, the “GSPT1 substrate protein remaining %” value is “A (0% ≤ substrate protein remaining % ≤80%)”.

On to `O=C1CCN(N2Cc3cc(CN4CCC(c5noc6ccccc56)CC4)ccc3C2=O)C(=O)N1` [GT-07642, 1-(5-((4-(benzo[d]isoxazol-3-yl)piperidin-1-yl)methyl)-1-oxoisoindolin-2-yl)dihydropyrimidine-2,4(1H,3H)-dione], for which the “IKZF2 substrate protein remaining %” value at IKZF2 is “B (80%< substrate protein remaining % ≤100%)”. The “IKZF1 substrate protein remaining %” value at IKZF1 is recorded as “B (80%< substrate protein remaining % ≤100%)”. Moreover, the “IKZF3 substrate protein remaining %” value at IKZF3 is “B (80%< substrate protein remaining % ≤100%)”. Also, the “WEE1 substrate protein remaining %” value at WEE1 was “B (80%< substrate protein remaining % ≤100%)”. Besides, the “CK1α substrate protein remaining %” value at CK1α was “B (80%< substrate protein remaining % ≤100%)”. At GSPT1, the “GSPT1 substrate protein remaining %” value is recorded as “A (0% ≤ substrate protein remaining % ≤80%)”.

Regarding `O=C1CCN(N2C(=O)c3ccc(CN4CC=C(c5n[nH]c6cc(F)ccc56)CC4)cc3C2=O)C(=O)N1` [GT-07643, 2-(2,4-dioxotetrahydropyrimidin-1(2H)-yl)-5-((4-(6-fluoro-1H-indazol-3-yl)-3,6-dihydropyridin-1(2H)-yl)methyl)isoindoline-1,3-dione], at IKZF2, the “IKZF2 substrate protein remaining %” value is “B (80%< substrate protein remaining % ≤100%)”. In addition, the “IKZF1 substrate protein remaining %” value on IKZF1 is recorded as “B (80%< substrate protein remaining % ≤100%)”. Besides, at IKZF3, the “IKZF3 substrate protein remaining %” value is “B (80%< substrate protein remaining % ≤100%)”. Moreover, the “WEE1 substrate protein remaining %” value at WEE1 was “B (80%< substrate protein remaining % ≤100%)”. The “CK1α substrate protein remaining %” value at CK1α is given as “B (80%< substrate protein remaining % ≤100%)”. Moreover, the “GSPT1 substrate protein remaining %” value at GSPT1 is on record as “A (0% ≤ substrate protein remaining % ≤80%)”.

Take `O=C1CCN(N2Cc3cc(CN4CCC(c5cccc6cnccc56)CC4)ccc3C2=O)C(=O)N1` [GT-07644, 1-(5-((4-(isoquinolin-5-yl)piperidin-1-yl)methyl)-1-oxoisoindolin-2-yl)dihydropyrimidine-2,4(1H,3H)-dione]: the “IKZF2 substrate protein remaining %” value on IKZF2 was “B (80%< substrate protein remaining % ≤100%)”. In addition, the “IKZF1 substrate protein remaining %” value on IKZF1 is recorded as “B (80%< substrate protein remaining % ≤100%)”. For the same compound, the “IKZF3 substrate protein remaining %” value on IKZF3 was “B (80%< substrate protein remaining % ≤100%)”. The “WEE1 substrate protein remaining %” value at WEE1 is “B (80%< substrate protein remaining % ≤100%)”. For the same compound, the “CK1α substrate protein remaining %” value on CK1α is listed as “B (80%< substrate protein remaining % ≤100%)”. Besides, at GSPT1, the “GSPT1 substrate protein remaining %” value was “A (0% ≤ substrate protein remaining % ≤80%)”.

With `O=C1CCN(N2Cc3cc(CN4CCC(c5ccnc6cc(F)ccc56)CC4)ccc3C2=O)C(=O)N1` [GT-07645, 1-(5-((4-(7-fluoroquinolin-4-yl)piperidin-1-yl)methyl)-1-oxoisoindolin-2-yl)dihydropyrimidine-2,4(1H,3H)-dione], at IKZF2, the “IKZF2 substrate protein remaining %” value is “B (80%< substrate protein remaining % ≤100%)”. Moreover, on IKZF1, the “IKZF1 substrate protein remaining %” value was “A (0% ≤ substrate protein remaining % ≤80%)”. On IKZF3, the “IKZF3 substrate protein remaining %” value is reported as “B (80%< substrate protein remaining % ≤100%)”. The “WEE1 substrate protein remaining %” value on WEE1 was “B (80%< substrate protein remaining % ≤100%)”. The “CK1α substrate protein remaining %” value on CK1α is “B (80%< substrate protein remaining % ≤100%)”. The “GSPT1 substrate protein remaining %” value on GSPT1 is reported as “A (0% ≤ substrate protein remaining % ≤80%)”.
